Assay results published in patent publication US20170190671A1, “BIS(ARYL)CATECHOL DERIVATIVES AS HERBICIDES” (E I DU PONT DE NEMOURS AND COMPANY, priority 2014, published 2017).

Columns and labels:
Type in all cases: in vivo
Conditions in all cases: scale 0 to 100
[1] = tested on: Italian ryegrass (Lolium multiflorum); experiment: Test D postemergence
How it was run: (§1)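 Assessment is visual, relative to untreated controls, 14 to 21 days after application, with 100 meaning complete control. Seeds in silt loam receive preemergence spray; seedlings at the 1- to 4-leaf stage receive postemergence spray.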

[2] = tested on: chamomile (scentless chamomile, Matricaria inodora); experiment: Test D postemergence
How it was run: as §1

[3] = tested on: bluegrass (annual bluegrass, Poa annua); experiment: Test D postemergence
How it was run: as §1

[4] = tested on: speedwell (bird's-eye speedwell, Veronica persica); experiment: Test D postemergence
How it was run: as §1

[5] = tested on: blackgrass (Alopecurus myosuroides); experiment: Test D postemergence
How it was run: as §1

[6] = tested on: downy bromegrass (Bromus tectorum); experiment: Test D postemergence
How it was run: as §1

kochia (Kochia scoparia) [7] = experiment: Test D postemergence
How it was run: as §1

[8] = tested on: pigweed (Amaranthus retroflexus); experiment: Test D postemergence
How it was run: as §1

[9] = tested on: Russian thistle (Salsola kali); experiment: Test D postemergence
How it was run: as §1

[10] = tested on: cutleaf geranium (Geranium dissectum); experiment: Test D postemergence
How it was run: as §1

[11] = tested on: spring barley (Hordeum vulgare); experiment: Test D postemergence
How it was run: as §1

[12] = tested on: field poppy (Papaver rhoeas); experiment: Test D postemergence
How it was run: as §1

[13] = tested on: oilseed rape (Brassica napus); experiment: Test D postemergence
How it was run: as §1

[14] = tested on: spring wheat (Triticum aestivum); experiment: Test D postemergence
How it was run: as §1

[15] = tested on: field violet (Viola arvensis); experiment: Test D postemergence
How it was run: as §1

[16] = tested on: canarygrass (Phalaris minor); experiment: Test D postemergence
How it was run: as §1

[17] = tested on: green foxtail (Setaria viridis); experiment: Test D postemergence
How it was run: as §1

[18] = tested on: chickweed (common chickweed, Stellaria media); experiment: Test D postemergence
How it was run: as §1

[19] = tested on: winter wheat (Triticum aestivum); experiment: Test D preemergence
Text: (§2) Seeds of plant species selected from bluegrass (annual bluegrass, Poa annua), blackgrass (Alopecurus myosuroides), canarygrass (Phalaris minor), chickweed (common chickweed, Stellaria media), cutleaf geranium (Geranium dissectum), galium (catchweed bedstraw, Galium aparine), downy bromegrass (Bromus tectorum), field poppy (Papaver rhoeas), field violet (Viola arvensis), green foxtail (Setaria viridis), deadnettle (henbit deadnettle, Lamium amplexicaule), Italian ryegrass (Lolium multiflorum), kochia (Kochia scoparia), lambsquarters (Chenopodium album), oilseed rape (Brassica napus), pigweed (Amaranthus retroflexus), chamomile (scentless chamomile, Matricaria inodora), Russian thistle (Salsola kali), speedwell (bird's-eye speedwell, Veronica persica), spring barley (Hordeum vulgare), spring wheat (Triticum aestivum), wild buckwheat (Polygonum convolvulus), wild mustard (Sinapis arvensis), wild oat (Avenafatua), wild radish (Raphanus raphanistrum), windgrass (Apera spica-venti), winter barley (Hordeum vulgare), and winter wheat (Triticum aestivum) were planted into a silt loam soil and treated preemergence with test chemicals formulated in a non-phytotoxic solvent mixture which included a surfactant.
(§3) At the same time, these species were planted in pots containing Redi-Earth® planting medium (Scotts Company, 14111 Scottslawn Road, Marysville, Ohio 43041) comprising spaghnum peat moss, vermiculite, wetting agent and starter nutrients and treated with postemergence applications of the test chemicals formulated in the same manner. Plants ranged in height from 2 to 18 cm (1- to 4-leaf stage). Treated plants and controls were maintained in a controlled growth environment for 14 to 21 days after which time all species were compared to controls and visually evaluated. Plant response ratings, summarized in Table D, are based on a scale of 0 to 100 where 0 is no effect and 100 is complete control. A dash (-) response means no test result.

kochia (Kochia scoparia) [20] = experiment: Test D preemergence
Text: as §2, §3

[21] = tested on: spring wheat (Triticum aestivum); experiment: Test D preemergence
Text: as §2, §3

`Fc1cnc(Oc2c(Br)cccc2Oc2ncc(Cl)cn2)nc1` [Compound 22] was tested, and the “Plant response rating, Ryegrass, Italian” value ([1]; 16 g ai/ha) was 15, the “Plant response rating, Ryegrass, Italian” value ([1]; 31 g ai/ha) was 20 and the “Plant response rating, Ryegrass, Italian” value ([1]; 62 g ai/ha) was 25. The “Plant response rating, Ryegrass, Italian” value ([1]; 125 g ai/ha) was 35, the “Plant response rating, Chamomile” value ([2]; 16 g ai/ha) was 0 and the “Plant response rating, Chamomile” value ([2]; 31 g ai/ha) was 0. The “Plant response rating, Chamomile” value ([2]; 62 g ai/ha) was 0, the “Plant response rating, Chamomile” value ([2]; 125 g ai/ha) was 5 and the “Plant response rating, Bluegrass” value ([3]; 16 g ai/ha) was 0. The “Plant response rating, Bluegrass” value ([3]; 31 g ai/ha) was 5, the “Plant response rating, Bluegrass” value ([3]; 62 g ai/ha) was 15 and the “Plant response rating, Bluegrass” value ([3]; 125 g ai/ha) was 40. For the same compound, the “Plant response rating, Speedwell” value ([4]; 16 g ai/ha) was 30, the “Plant response rating, Speedwell” value ([4]; 31 g ai/ha) was 40 and the “Plant response rating, Speedwell” value ([4]; 62 g ai/ha) was 75. For the same compound, the “Plant response rating, Speedwell” value ([4]; 125 g ai/ha) was 90, the “Plant response rating, Blackgrass” value ([5]; 16 g ai/ha) was 20 and the “Plant response rating, Blackgrass” value ([5]; 31 g ai/ha) was 30. For the same compound, the “Plant response rating, Blackgrass” value ([5]; 62 g ai/ha) was 35, the “Plant response rating, Blackgrass” value ([5]; 125 g ai/ha) was 40 and the “Plant response rating, Bromegrass, Downy” value ([6]; 16 g ai/ha) was 5. For the same compound, the “Plant response rating, Bromegrass, Downy” value ([6]; 31 g ai/ha) was 10, the “Plant response rating, Bromegrass, Downy” value ([6]; 62 g ai/ha) was 20 and the “Plant response rating, Bromegrass, Downy” value ([6]; 125 g ai/ha) was 25. The “Plant response rating, Kochia” value (kochia (Kochia scoparia) [7]; 16 g ai/ha) was 40, the “Plant response rating, Kochia” value (kochia (Kochia scoparia) [7]; 31 g ai/ha) was 45 and the “Plant response rating, Kochia” value (kochia (Kochia scoparia) [7]; 62 g ai/ha) was 60. For the same compound, the “Plant response rating, Kochia” value (kochia (Kochia scoparia) [7]; 125 g ai/ha) was 70, the “Plant response rating, Pigweed” value ([8]; 16 g ai/ha) was 75 and the “Plant response rating, Pigweed” value ([8]; 31 g ai/ha) was 80. For the same compound, the “Plant response rating, Pigweed” value ([8]; 62 g ai/ha) was 75, the “Plant response rating, Pigweed” value ([8]; 125 g ai/ha) was 95 and the “Plant response rating, Russian Thistle” value ([9]; 16 g ai/ha) was 0. The “Plant response rating, Russian Thistle” value ([9]; 31 g ai/ha) was 5, the “Plant response rating, Russian Thistle” value ([9]; 62 g ai/ha) was 10 and the “Plant response rating, Russian Thistle” value ([9]; 125 g ai/ha) was 15. The “Plant response rating, Geranium, Cutleaf” value ([10]; 16 g ai/ha) was 45, the “Plant response rating, Geranium, Cutleaf” value ([10]; 31 g ai/ha) was 55 and the “Plant response rating, Geranium, Cutleaf” value ([10]; 62 g ai/ha) was 55. The “Plant response rating, Geranium, Cutleaf” value ([10]; 125 g ai/ha) was 60, the “Plant response rating, Barley, Spring” value ([11]; 16 g ai/ha) was 5 and the “Plant response rating, Barley, Spring” value ([11]; 31 g ai/ha) was 10. For the same compound, the “Plant response rating, Barley, Spring” value ([11]; 62 g ai/ha) was 15, the “Plant response rating, Barley, Spring” value ([11]; 125 g ai/ha) was 20 and the “Plant response rating, Field Poppy” value ([12]; 16 g ai/ha) was 55. For the same compound, the “Plant response rating, Field Poppy” value ([12]; 31 g ai/ha) was 65, the “Plant response rating, Field Poppy” value ([12]; 62 g ai/ha) was 70 and the “Plant response rating, Field Poppy” value ([12]; 125 g ai/ha) was 70. For the same compound, the “Plant response rating, Oilseed Rape” value ([13]; 16 g ai/ha) was 15, the “Plant response rating, Oilseed Rape” value ([13]; 31 g ai/ha) was 45 and the “Plant response rating, Oilseed Rape” value ([13]; 62 g ai/ha) was 70. For the same compound, the “Plant response rating, Oilseed Rape” value ([13]; 125 g ai/ha) was 80, the “Plant response rating, Wheat, Spring” value ([14]; 16 g ai/ha) was 5 and the “Plant response rating, Wheat, Spring” value ([14]; 31 g ai/ha) was 5. For the same compound, the “Plant response rating, Wheat, Spring” value ([14]; 62 g ai/ha) was 10, the “Plant response rating, Wheat, Spring” value ([14]; 125 g ai/ha) was 15 and the “Plant response rating, Field Violet” value ([15]; 16 g ai/ha) was 25. The “Plant response rating, Field Violet” value ([15]; 31 g ai/ha) was 40, the “Plant response rating, Field Violet” value ([15]; 62 g ai/ha) was 70 and the “Plant response rating, Field Violet” value ([15]; 125 g ai/ha) was 75. For the same compound, the “Plant response rating, Canarygrass” value ([16]; 16 g ai/ha) was 10, the “Plant response rating, Canarygrass” value ([16]; 31 g ai/ha) was 10 and the “Plant response rating, Canarygrass” value ([16]; 62 g ai/ha) was 20. For the same compound, the “Plant response rating, Canarygrass” value ([16]; 125 g ai/ha) was 25, the “Plant response rating, Foxtail, Green” value ([17]; 16 g ai/ha) was 10 and the “Plant response rating, Foxtail, Green” value ([17]; 31 g ai/ha) was 15. The “Plant response rating, Foxtail, Green” value ([17]; 62 g ai/ha) was 25, the “Plant response rating, Foxtail, Green” value ([17]; 125 g ai/ha) was 30 and the “Plant response rating, Chickweed” value ([18]; 16 g ai/ha) was 30. For the same compound, the “Plant response rating, Chickweed” value ([18]; 31 g ai/ha) was 75, the “Plant response rating, Chickweed” value ([18]; 62 g ai/ha) was 75 and the “Plant response rating, Chickweed” value ([18]; 125 g ai/ha) was 75. For the same compound, the “Plant response rating, Wheat, Winter” value ([19]; 16 g ai/ha) was 0, the “Plant response rating, Wheat, Winter” value ([19]; 31 g ai/ha) was 0 and the “Plant response rating, Wheat, Winter” value ([19]; 62 g ai/ha) was 5. For the same compound, the “Plant response rating, Wheat, Winter” value ([19]; 125 g ai/ha) was 40, the “Plant response rating, Kochia” value (kochia (Kochia scoparia) [20]; 16 g ai/ha) was 0 and the “Plant response rating, Kochia” value (kochia (Kochia scoparia) [20]; 31 g ai/ha) was 10. For the same compound, the “Plant response rating, Kochia” value (kochia (Kochia scoparia) [20]; 62 g ai/ha) was 20, the “Plant response rating, Kochia” value (kochia (Kochia scoparia) [20]; 125 g ai/ha) was 70 and the “Plant response rating, Wheat, Spring” value ([21]; 16 g ai/ha) was 0. For the same compound, the “Plant response rating, Wheat, Spring” value ([21]; 31 g ai/ha) was 5, the “Plant response rating, Wheat, Spring” value ([21]; 62 g ai/ha) was 15 and the “Plant response rating, Wheat, Spring” value ([21]; 125 g ai/ha) was 35.
